# Measurements from patent US7981875B2, “2″ oxo-voruscharin and derivatives thereof” (priority 2002, dated 2011).
# Like-named read-outs stand apart in the source and are kept apart here.
# Experiments:
# [1] = Maximum Tolerated Dose in healthy mice; format: in vivo; settings: single administration in mice, healthy animals, 14 days post-injection
# Protocol: The Maximum Tolerated Dose (MTD) of a given drug is defined as the maximum amount of a drug which can be administered acutely (i.e. in one i.p., i.v., s.c. or per os single dose) to healthy animals, i.e. animals not grafted with tumors. The survival times and weights of the animals are recorded up to 14 days post-injection. Five different doses of each drug are used for the determination of the MTD index. When the MTD index is higher than 160 mg/kg (i.p. administration) the drug is usually considered to be non-toxic, and the highest dose administered to tumor-bearing mice is MTD/2=80 mg/kg. Each experimental group was composed of 3 mice for the determination of the MTD index.
# LoVo = test: MTT test, overall cell growth; format: cell-based, human; settings: 72 hours of incubation
# Protocol: (§1) In order to characterize the in vitro activities of the compounds according to the invention, MTT tests were carried out. The MTT test, which is a well-known test in the art, is an indirect technique that rapidly measures, i.e. within 5 days, the effect of a given product on the overall cell growth. This test measures the number of metabolically active living cells that are able to transform the MTT product (3-(4,5-dimethylthiazol-2-yl)-2,5 diphenyl tetrazolium bromide), having a yellowish color, to the blue product formazan dye by mitochondrial reduction. The amount of formazan obtained at the end of the experiment is measured with a spectrophotometer and is directly proportional to the number of living cells. Determination of the optical density enables a quantitative measurement of the effect of the investigated compounds as compared to the control condition (untreated cells) and to compare it to other reference compound. In the following examples different compounds according to the invention were tested and compared to the reference compound being uscharin.
# (§2) Six human cancer cell lines, described in Table C, were tested in the presence of compounds according to the invention. These cell lines covered four histological cancer types, being Glioma, colon, lung and bladder cancer. The cells were allowed to grow in 96-well micro wells with a flat bottom with an amount of 100 μl of cell suspension per well in reason to 4000 cells/well depending on cell type. Each cell line was seeded in its own cell culture medium (Table C).
# (§3) After a 24-hour period of incubation at 37° C., the culture medium is replaced by 100 μl of fresh medium in which the compound to be tested has been dissolved at different required concentrations. Different compounds were tested at 10^−9 M, 5×10^−9 M, 10^−8 M, 5×10^−8 M, 10^−7 M, 5×10^−7 M, 10^−6 M, 5×10^−6 M et 10^−5 M. Each experimental condition is carried out in hexaplicate. The compounds tested are 2″ oxo-voruscharin, and compounds B, C, D, E, H and I represented in Table B above.
# (§4) After 72 hours of incubation at 37° C. with the compound (experimental conditions) or without the compound (control condition), the medium was replaced by 100 μl MTT at the concentration of 1 mg/ml dissolved in RPMI. The micro wells were subsequently incubated during 3 hours at 37° C. and centrifuged at 400 g during 10 minutes. The MTT was removed and formazan crystals formed, were dissolved in 100 μl DMSO. The micro wells were shaken for 5 minutes and read on a spectrophotometer at the wavelengths of 570 nm corresponding to the maximum formazan absorbance wavelength, and of 630 nm, which is the background noise wavelength.
# (§5) For each experimental condition, the mean OD associated with the SEM (standard error of the mean) for each condition (6 wells) was calculated. The percentage of remaining living cells in comparison with the control was calculated. Results of these experiments are represented in FIGS. 2 to 8.
# Hs683 = test: MTT test, overall cell growth; format: cell-based, human
# Protocol: as §1, §2, §3, §4, §5
# J82 = test: MTT test, overall cell growth; format: cell-based, human
# Protocol: as §1, §2, §3, §4, §5
# A549 = test: MTT test, overall cell growth; format: cell-based, human; settings: 72 hours of incubation
# Protocol: as §1, §2, §3, §4, §5
# HCT-15 = test: MTT test, overall cell growth; format: cell-based, human
# Protocol: as §1, §2, §3, §4, §5
# U-373 MG = test: MTT test, overall cell growth; format: cell-based, human; settings: U-373, MTT, 72 hours of incubation
# Protocol: as §1, §2, §3, §4, §5
# [2] = system: MCF-7-TD5 (breast cancer); test: Sub-cutaneous xenograft breast cancer model; format: in vivo, mice
# Protocol: Three types of results were obtained with in vivo anti-tumor pharmacology: 1) the cumulative toxicity of chemotherapeutic administrations through recording the weights of the tumor-bearing mice during treatment, 2) the actual anti-tumor effect exerted at tumor growth level. If the tumor models are grafted subcutaneously (s.c.), tumor size is measured three times a week by means of a caliper and expressed as an area (mm^2) by multiplying together the two largest perpendicular diameters, and 3) the gain in survival for the animals treated, which is evaluated by means of the T/C index. This index is the ratio between the median survival time of the group of treated animals (T) and that of the control group. The drug is considered to be active if the T/C value is above 130% (P<0.05), and toxic for a value lower than 70%.
# The antitumoral activity of compound B was evaluated in different xenografted models: sub-cutanous model: MCF-7-TD5 (breast cancer) and C32 (melanoma cancer) and orthotopic model: A549 (lung cancer).
# The MCF-7-TD5 model described herein is a […] form of MCF-7 transfected with v-Ha-ras oncogene and with a neomycin-resistance gene. Compound B was assayed at MTD/8 (10 mg/kg) and MTD/16 (5 mg/kg) five times a week.
# After s.c. injection of MCF-7-TD5 into untreated female nu/nu mice, the MCF-7 TD5 produced tumors after latency periods of 7 to 18 weeks. […] No oestradiol was used during the experiments described in this example.
# Capan-2 (Pancreas) = test: MTT test, overall cell growth; format: cell-based, human; settings: Capan-2 cell line
# Protocol: as §1, with “In the following examples different compounds according to the invention were tested and compared to the reference compound being uscharin.” left out
# as §4, with “The micro wells were subsequently incubated during 3 hours at 37° C. and centrifuged at 400 g during 10 minutes. The MTT was removed and formazan crystals formed, were dissolved in 100 μl DMSO.” left out, “wavelength. […]” for “wavelength.”
# PC-3 (Prostate) = test: MTT test, overall cell growth; format: cell-based, human; settings: PC-3 cell line
# Protocol: as §1, with “In the following examples different compounds according to the invention were tested and compared to the reference compound being uscharin.” left out
# as §4, with “The micro wells were subsequently incubated during 3 hours at 37° C. and centrifuged at 400 g during 10 minutes. The MTT was removed and formazan crystals formed, were dissolved in 100 μl DMSO.” left out, “wavelength. […]” for “wavelength.”
smiles,measurement,setting,value
"CC1CC2(NC(=O)CS2)C2(O)OC3CC4(C=O)C(CCC5C4CCC4(C)C(C6=CC(=O)OC6)CCC54O)CC3OC2O1 (stereo not shown) [2″oxo-voruscharin, 2″ oxo-voruscharin]",MTD index,[1],20 mg/kg
same,IC50,LoVo; Homo sapiens,5 to 10 nM
same,IC50,"Hs683; Homo sapiens, Hs 683, Hs683, MTT, 72 hours of incubation, read-out: IC50 value",1 to 5 nM
same,IC50,"Hs683; Homo sapiens, Hs 683, Hs683, Table E, concentration used for flow cytometry, chosen in accordance with MTT results, read-out: IC50",170 nM
same,IC30,"Hs683; Hs683, Table E, concentration which kills 30% of the cell population",8.3 nM
same,IC50,"J82; Homo sapiens, J82, MTT, 72 hours of incubation, read-out: IC50 value",> 10000 nM
same,IC50,"J82; Homo sapiens, J82, Table E, concentration used for flow cytometry, chosen in accordance with MTT results, read-out: IC50",4100 nM
same,IC30,"J82; J82, Table E, concentration which kills 30% of the cell population",1700 nM
same,IC50,A549; Homo sapiens,10 to 50 nM
same,IC30,"HCT-15; HCT-15, Table E, concentration which kills 30% of the cell population",4.1 nM
same,IC50,"HCT-15; Homo sapiens, HCT-15, MTT, 72 hours of incubation, read-out: IC50 value",10 to 50 nM
same,IC50,"HCT-15; Homo sapiens, HCT-15, Table E, concentration used for flow cytometry, chosen in accordance with MTT results, read-out: IC50",12 nM
same,IC50,"U-373 MG; Homo sapiens, U373 MG",10 to 50 nM
CC1CC2(NC(=O)CS2)C2(O)OC3CC4(CO)C(CCC5C4CCC4(C)C(C6=CC(=O)OC6)CCC54O)CC3OC2O1 (stereo not shown) [Compound B],MTD index,[1],80 mg/kg
same,survival periods of MCF-7-TD5 tumor bearing mice,[2]; 60 administrations of 10 mg/kg and 5 mg/kg,not sufficient to significantly increase the survival periods
same,MCF-7-TD5 tumor growth,"[2]; 60 administrations of 10 mg/kg and 5 mg/kg, five times a week",significantly decreased MCF-7-TD5 tumor growth
same,weight of MCF-7-TD5 tumor bearing mice (toxic side effects),"[2]; constant administrations, 10 mg/kg and 5 mg/kg",did not lose any significant weight
same,IC50,LoVo,1 to 5 nM
same,IC50,"Hs683; Hs683, MTT, 72 hours of incubation, read-out: IC50 value",1000 to 5000 nM
same,IC50,"J82; J82, MTT, 72 hours of incubation, read-out: IC50 value",5000 to 10000 nM
same,IC50,A549,10 nM
same,IC50,"HCT-15; HCT-15, MTT, 72 hours of incubation, read-out: IC50 value",10 to 50 nM
same,IC50,U-373 MG,10 to 50 nM
same,IC50,Capan-2 (Pancreas),1 nM
same,IC50,PC-3 (Prostate),5 to 10 nM
